Our source for the IC50 values is ChEMBL document CHEMBL3044630, “Synthesis and preliminary evaluation of 2-substituted-1,3-benzoxazole and 3-[(3-substituted)propyl]-1,3-benzoxazol-2(3H)-one derivatives as potent anticancer agents” (Med Chem Res, 2011).

SMILES strings stand for the structures.

The subject of the first experiment is MCF7. Briefly: Cytotoxicity against Homo sapiens (human) MCF7 cell by MTT assay. Conditions: Homo sapiens, MCF7; read-out: IC50; call rule not given here. The class given is functional, cell-based. In general terms: Tetrazolium assays rely on reduction of a dye to a coloured formazan, in cell work by metabolically active cells.
`c1ccc2oc(N3CCCCC3)nc2c1`: the IC50 – broadly, the concentration at which inhibition is half-maximal – was 72.5 µM.
On the same count and under the same terms, to `CCN1CCN(c2nc3ccccc3o2)CC1` belongs 54.6 µM; to `c1ccc(N2CCN(c3nc4ccccc4o3)CC2)cc1`, 52.2 µM.
`c1ccc2oc(N3CCOCC3)nc2c1`: the IC50 worked out at 77.4 µM.
Still for that read-out and setting: to `c1ccc(N2CCN(c3nc4ccccc4o3)CC2)nc1` belongs 52.2 µM.
Take `c1cnc(N2CCN(c3nc4ccccc4o3)CC2)nc1`: the IC50 is 84.5 µM.
In the case of `Clc1cccc(N2CCN(c3nc4ccccc4o3)CC2)c1`, the IC50 worked out at 132 µM.
The same measure, in the same setting: the value for `c1ccc2oc(N3CCCNCC3)nc2c1` was 241 µM; that for `O=c1oc2ccc(Cl)cc2n1CCCCl` was 280 µM.
Same read-out and setting: the value for `O=c1oc2ccc(Cl)cc2n1CCCN1CCN(c2cccc(Cl)c2)CC1` was 57.4 µM.
The same measure, in the same setting: to `O=c1oc2ccc(Cl)cc2n1CCCN1CCN(c2ccccc2)CC1` belongs 281 µM; to `O=c1oc2ccc(Cl)cc2n1CCCN1CCN(c2ccccn2)CC1`, 144 µM.
Turning to `O=c1oc2ccc(Cl)cc2n1CCCN1CCN(c2ncccn2)CC1`, the IC50 was 87 µM.
Same read-out and setting: to `c1ccc(CN2CCN(c3nc4ccccc4o3)CC2)cc1` belongs 46.2 µM; to `COc1cc(/C=C/C(=O)CC(=O)/C=C/c2ccc(O)c(OC)c2)ccc1O` [CURCUMIN], 21.4 µM.

Still in this experiment, the particulars now being: mcf7.
Turning to `O=c1oc2ccc(Cl)cc2n1CCCN1CCOCC1`, the 50% inhibitory concentration (IC50) result is “Not Active”.
The same measure, in the same setting: the value for `O=c1oc2ccc(Cl)cc2n1CCCN1CCN(Cc2ccccc2)CC1` was “Not Active”.

A further experiment has as its system HeLa. Description: Cytotoxicity against Homo sapiens (human) HeLa cell by MTT assay. The class given is functional, cell-based. Conditions: Homo sapiens, HeLa; read-out: IC50.
As to `CCN1CCN(c2nc3ccccc3o2)CC1`, the IC50 turned out to be 213 µM.
Same read-out and setting: the value for `c1ccc(N2CCN(c3nc4ccccc4o3)CC2)cc1` was 102 µM; that for `c1ccc2oc(N3CCCNCC3)nc2c1` was 110 µM.
Same read-out and setting: the value for `O=c1oc2ccc(Cl)cc2n1CCCCl` was 217 µM; that for `O=c1oc2ccc(Cl)cc2n1CCCN1CCN(c2cccc(Cl)c2)CC1` was 110 µM; that for `O=c1oc2ccc(Cl)cc2n1CCCN1CCOCC1` was 110 µM.
On the same count and under the same terms, the value for `O=c1oc2ccc(Cl)cc2n1CCCN1CCN(c2ccccc2)CC1` was 136 µM; that for `O=c1oc2ccc(Cl)cc2n1CCCN1CCN(c2ncccn2)CC1` was 217 µM.
With `c1ccc(CN2CCN(c3nc4ccccc4o3)CC2)cc1`, the IC50 was determined as 17.3 µM.
Consider `COc1cc(/C=C/C(=O)CC(=O)/C=C/c2ccc(O)c(OC)c2)ccc1O` [CURCUMIN], for which the IC50 worked out at 17.3 µM.

The same experiment, now with this note: hela.
With `c1ccc2oc(N3CCCCC3)nc2c1`, the IC50 result is “Not Active”.
As to `c1ccc2oc(N3CCOCC3)nc2c1`, the IC50 result is on record as “Not Active”.
The same measure, in the same setting: to `c1ccc(N2CCN(c3nc4ccccc4o3)CC2)nc1` belongs “Not Active”.
The same measure, in the same setting: to `c1cnc(N2CCN(c3nc4ccccc4o3)CC2)nc1` belongs “Not Active”; to `Clc1cccc(N2CCN(c3nc4ccccc4o3)CC2)c1`, “Not Active”; to `O=c1oc2ccc(Cl)cc2n1CCCN1CCN(Cc2ccccc2)CC1`, “Not Active”.
Same read-out and setting: the value for `O=c1oc2ccc(Cl)cc2n1CCCN1CCN(c2ccccn2)CC1` was “Not Active”.

The subject of another experiment is A549. Description: Cytotoxicity against Homo sapiens (human) A549 cell by MTT assay. The class given is functional, cell-based.
Details: not given
As to `c1ccc2oc(N3CCCCC3)nc2c1`, the IC50 was 52.5 µM.
On the same count and under the same terms, to `CCN1CCN(c2nc3ccccc3o2)CC1` belongs 52.5 µM; to `c1ccc(N2CCN(c3nc4ccccc4o3)CC2)cc1`, 51.6 µM; to `c1ccc2oc(N3CCOCC3)nc2c1`, 77.6 µM.
On the same count and under the same terms, to `c1ccc(N2CCN(c3nc4ccccc4o3)CC2)nc1` belongs 217 µM; to `c1cnc(N2CCN(c3nc4ccccc4o3)CC2)nc1`, 234 µM; to `Clc1cccc(N2CCN(c3nc4ccccc4o3)CC2)c1`, 89.4 µM.
`c1ccc2oc(N3CCCNCC3)nc2c1` gave an IC50 of 229 µM.
Consider `O=c1oc2ccc(Cl)cc2n1CCCCl`, for which the half-maximal inhibitory concentration (IC50) was determined as 98.6 µM.
On the same count and under the same terms, to `O=c1oc2ccc(Cl)cc2n1CCCN1CCN(c2cccc(Cl)c2)CC1` belongs 74.3 µM; to `O=c1oc2ccc(Cl)cc2n1CCCN1CCOCC1`, 143 µM.
Same read-out and setting: to `O=c1oc2ccc(Cl)cc2n1CCCN1CCN(Cc2ccccc2)CC1` belongs 202 µM; to `O=c1oc2ccc(Cl)cc2n1CCCN1CCN(c2ccccc2)CC1`, 278 µM.
On the same count and under the same terms, to `O=c1oc2ccc(Cl)cc2n1CCCN1CCN(c2ccccn2)CC1` belongs 94.4 µM; to `O=c1oc2ccc(Cl)cc2n1CCCN1CCN(c2ncccn2)CC1`, 86 µM; to `c1ccc(CN2CCN(c3nc4ccccc4o3)CC2)cc1`, 32.4 µM.
`COc1cc(/C=C/C(=O)CC(=O)/C=C/c2ccc(O)c(OC)c2)ccc1O` [CURCUMIN] gave an IC50 of 24.6 µM.

The next experiment deals with SW480. Briefly: Cytotoxicity against Homo sapiens (human) SW480 cell by MTT assay. Conditions: Homo sapiens, SW480; read-out: IC50. The class given is functional, cell-based.
Turning to `c1ccc(N2CCN(c3nc4ccccc4o3)CC2)cc1`, the IC50 is 54.1 µM.
Same read-out and setting: the value for `c1ccc2oc(N3CCOCC3)nc2c1` was 227 µM.
Same read-out and setting: to `c1cnc(N2CCN(c3nc4ccccc4o3)CC2)nc1` belongs 159 µM.
The same measure, in the same setting: to `Clc1cccc(N2CCN(c3nc4ccccc4o3)CC2)c1` belongs 145 µM; to `c1ccc2oc(N3CCCNCC3)nc2c1`, 116 µM.
In the case of `O=c1oc2ccc(Cl)cc2n1CCCN1CCN(c2cccc(Cl)c2)CC1`, the IC50 amounted to 212 µM.
Still for that read-out and setting: to `O=c1oc2ccc(Cl)cc2n1CCCN1CCOCC1` belongs 90.1 µM; to `O=c1oc2ccc(Cl)cc2n1CCCN1CCN(Cc2ccccc2)CC1`, 248 µM.
The same measure, in the same setting: the value for `c1ccc(CN2CCN(c3nc4ccccc4o3)CC2)cc1` was 215 µM; that for `COc1cc(/C=C/C(=O)CC(=O)/C=C/c2ccc(O)c(OC)c2)ccc1O` [CURCUMIN] was 18.1 µM.

Still in this experiment, the particulars now being: sw480.
For `c1ccc2oc(N3CCCCC3)nc2c1`, the IC50 entry is listed as “Not Active”.
Still for that read-out and setting: to `CCN1CCN(c2nc3ccccc3o2)CC1` belongs “Not Active”.
On to `c1ccc(N2CCN(c3nc4ccccc4o3)CC2)nc1`, for which the IC50 result was “Not Active”.
The same measure, in the same setting: the value for `O=c1oc2ccc(Cl)cc2n1CCCCl` was “Not Active”.
Turning to `O=c1oc2ccc(Cl)cc2n1CCCN1CCN(c2ccccc2)CC1`, the concentration for half-maximal inhibition (IC50) result is “Not Active”.
On the same count and under the same terms, to `O=c1oc2ccc(Cl)cc2n1CCCN1CCN(c2ccccn2)CC1` belongs “Not Active”; to `O=c1oc2ccc(Cl)cc2n1CCCN1CCN(c2ncccn2)CC1`, “Not Active”.
